pIC50: −log10 of the molar value. Where two headings read alike, the source gives them in different places.
Key:
[1] = target: PrP^Sc content in the cells (Mus musculus, UniProt P04925); conditions: read-out: IC50 (concentration for which 50% of the PrP^Sc content in the cells is inhibited); cited from earlier work
[2] = target: PrP^C from uninfected N2a58 cells (Mus musculus, UniProt P04925); format: cell-based, murine; conditions: uninfected cells, 1 to 10 μM, FIG. 3
[3] = target: PrP^Sc from infected N2a58/22L cells (Mus musculus, UniProt P04925); format: cell-based, murine
[4] = prolonged incubation up to 14 days, 5 and 20 μM, FIG. 4

Chain of PrP^Sc from infected N2a58/22L cells (P04925 23-230 limits assumed): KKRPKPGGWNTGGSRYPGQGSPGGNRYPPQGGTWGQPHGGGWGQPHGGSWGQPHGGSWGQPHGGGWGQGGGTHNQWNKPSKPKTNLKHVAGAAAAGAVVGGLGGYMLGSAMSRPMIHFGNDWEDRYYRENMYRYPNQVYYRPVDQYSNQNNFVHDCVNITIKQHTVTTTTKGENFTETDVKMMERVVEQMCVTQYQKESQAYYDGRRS
Chain of PrP^Sc content in the cells (P04925 23-230 limits assumed): as above
Chain of PrP^C from uninfected N2a58 cells (P04925 23-230 limits assumed): as above

**Q.** With `N#Cc1c(N)nc(Sc2ccccc2N)c(C#N)c1-c1ccco1` [2-amino-6-[(2-aminophenyl)thio]-4-(2-furyl)pyridine-3,5-dicarbonitrile] as the compound, how does the pIC50 [1] read?
**A.** ~4.82

**Q.** With `COc1ccc(S(=O)(=O)NNC(=O)c2ccc(Cn3cnc(Cl)c3Cl)o2)cc1` [N′-1-({5-[(4,5-dichloro-1H-imidazol-1-yl)methyl]-2-furyl}carbonyl)-4-methoxybenzene-1-sulfonohydrazide] as the compound, how does the pIC50 [1] read?
**A.** ~4.82

**Q.** Which results are given for `CSc1nccc(-c2ccc(Br)s2)n1` [compound A, 4-(5-bromo-2-thienyl)-2-(methylthio)pyrimidine]?
**A.** oligomerization of PrP^C in the cells [2]: does not increase the oligomerization of PrP^C; time at which the state of equilibrium of amplified oligomeric forms is reached ([3]; 5 μM): 11 days; time at which the state of equilibrium of amplified oligomeric forms is reached ([3]; 20 μM): 3 days; increase in the signal on the oligomeric forms compared with an untreated control ([3]; 20 μM, N2a58/22L cells, immunoblot after PK): approximately 90 fold; effect on the amount of PrP^Sc in the infected cells ([3]; infected cells, immunoblotting after proteinase K, FIGS. 1 and 2): notably increases the amount of PrP^Sc; appearance of oligomeric forms of greater size than those observed over 3 days [3, 4]: does not induce the appearance of oligomeric forms having a size greater; depletion of monomeric form PrP^Sc27-30 to the benefit of oligomeric forms around 50-60 kDa [3, 4]: No depletion

**Q.** Which “amount of oligomeric forms observed compared with compound A” value ([3]; 14 days, 20 μM, FIG. 6) does the source give for `Nc1nccc(-c2ccc(-c3cccs3)s2)n1` [compound B, 4-(5-thienyl-2-thienyl)-2-(amino)-pyrimidine] here?
**A.** much greater than for the compound A

**Q.** And the “amount of oligomeric forms of PrP^Sc at 5 μM versus higher concentrations” value ([3]; N2a58/22L cells, 3 days, 5 to 20 μM)?
**A.** identical to that observed for the concentration of 10 or 20 μM

**Q.** What about the “amplification capacity, comparative kinetics between compounds B and A” value ([3]; incubation period of 14 days) of the same compound?
**A.** greater amplification capacity

From patent publication US8435744B2 (priority 2005, dated 2013)
